pIC50: −log10 of the molar value.
Tests used:
PC3 [1] = assay: Soft agar colony-formation assay, prostate cancer; assay type: cell-based; settings: for anticancer activity in comparison with cisplatin, soft agar, prostate cancer cell line: FIG. 52, PC3; for pIC50: Homo sapiens, PC-3, 168 h, Soft Agar Assay, 1 week, Alamar Blue
Procedure: The Soft Agar Colony-formation Assay is an anchorage-independent growth assay in soft agar, which is one of the most stringent assays for detecting malignant transformation of cells. For this assay, malignant cells are cultured with appropriate controls in soft agar medium for 1-2 weeks. Following this incubation period, formed colonies can either be analyzed morphologically using cell stain and quantifying the number of colonies formed.
Briefly, for Soft Agar Assay a mixture of 50 ul of 2× medium (taken appropriately as per cell line) and 50 ul of 1.2% Bacto Agar were plated on to each well of 96 well micro titer assay plate. 10 ul of cells (of specific plating efficiency pre standardized for respective cell line) were mixed with 20 ul of 2× medium and 30 ul of 0.8% of Bacto Agar and 1.6 ul of drug (of appropriate concentration) in a vial and transferred to the solidified pre layers of the assay plates. The cells were then allowed to grow and form colonies at 37° C. and 5% CO2 for 1 week. An intermittent feeding with 50 ul of appropriate 2× medium was performed after 3 days of experimental set up. 16 ul of Alamar Blue (1.5 mg/ml) was then added to all the wells to quantify the developed colonies. The plates were incubated for 24 hrs at 37° C. Absorbance was then measured at 630 nm. XY graph of log Percent viability was then plotted against log drug concentration.
Following plating efficiencies were standardized for Soft Agar Assay: […]

MDAMB231 = assay: Wound Healing Assay (WHA), breast cancer cell line; assay type: cell-based; settings: IC10 conc. of compound
Procedure: Wound Healing Assay (WHA) determines the ability of cancer stem cells to heal the wound formed in a confluent monolayer.
Procedure: 0.35×10^6 cells were plated in each well of 6 Tissue Culture well plates. The plate was incubated for 48 hrs at 37° C., 5% CO2. […] IC10 conc. of the respective compound was added into each well. The plates were incubated at 37° C., 5% CO2 and the width of scratch was measured at various time intervals such as 6, 24 and 48 hours. Average of 3 distances were taken for each time point using IS camera Measure. A plot of average width of scratch in micrometer was plotted against the time interval after treatment.

[2] = tested on: Aldehyde dehydrogenase (ALDH); assay: Aldehyde Dehydrogenase (ALDH) assay, ELISA kit; assay type: cell-based; settings: MDAMB231, 48 hrs
Text: Aldehyde dehydrogenases (ALDH) are a family of enzymes that catalyze the metabolism of exogenous and endogenous aldehydes, preventing the accumulation of potentially reactive and toxic aldehydes and their metabolites. In addition to their role in aldehyde metabolism, ALDH enzymes also play critical roles in other cellular processes such as cell proliferation, differentiation, and survival. ALDH also serves as a marker for certain stem cell populations including hematopoietic stem cells and certain cancer stem cells. ALDH concentration was determined by using ([…] Dx) ELISA kit by following protocol: • 1 Standards (50 μl)/sample (40 μl) were added to the respective wells, (except Blank). • 2. (10 μl) Antibody-Biotin conjugate was then added in each sample well (except Blank). • 3. (50 μl) of Horse Radish Peroxidase (HRP) Conjugate was then added to each well (except Blank). • 4. The plates were incubated for one hour at 37° C. in the incubator. • 5. Wash (4 times with wash buffer) and blot residual buffer by firmly tapping the plate on the absorbent paper. Wipe off any liquid from the bottom of the microtiter wells as any residue can interfere in the reading step. • 6. Add TMB substrate A (50 μl) and then TMB substrate B (50 μl) to each well including Blank as well. • 7. Incubate for 10 mins at 37° C. in dark. • 8. Add (50 μl) stop solution. Wells should turn from blue to yellow. • 9. Read absorbance at 450 nm. • 10 A X-Y graph of concentration vs optical density was plotted. ALDH concentration was calculated by substituting optical density values in the regression analysis equation.

PC3 [3] = assay: In vitro sphere-forming assay (cancer stem cells), Prostosphere media; settings: for 3D sphere count of PC3: Prostosphere media, 2000 cells/well, n = 6 ± S.D
Procedure: In Vitro Sphere-forming Assay: Sphere assay measures the ability of cancer stem cells (CSCs) to form spheres in specially designed serum-free medium.
Prostosphere Media Preparation (For 100 mL):1 g methyl cellulose autoclaved with magnetic stirrer, 100 mL plain media (Prostate Epithelial Basal Medium) was added and dissolved, under magnetic stirring. After complete dissolution, Insulin-40 μL, B27-2 mL, EGF-80 μL, Penstrep-1 ml was added.
Procedure—The cells were trypsinised and made into single-cell suspension by passing through cell strainers (100 μl and 40 μl, respectively), The cells were diluted at a concentration of 2000 cells/100 μL and suspended in either Mammosphere (for breast cell lines) or Prostosphere (for prostate cell lines). 100 μL of this suspension was added into each well of 96-well suspension plates and incubated at 37° C., 5% CO2 for 24 hrs. Appropriate concentrations of the drugs (2 μL) were added into respective wells with 100 μL of stem cell culture medium. Plates were incubated at 37° C., 50 CO2 for 72 hrs. After incubation, 2.5 μL of the respective drug concentration and 50 μL of stem cell culture medium were added into each well and the plates were further incubated at 37° C., 50% CO2 for 72 hrs. 3 μL of the respective drug concentration was added with 50 μL of stem cell culture medium again after incubation and plates were reincubated for 72 hrs at 37° C., 50 CO2. Number of primary spheres formed for each concentration were counted. The spheres were converted to 0 viability of spheres compared to untreated (Growth Control with DMSO, GCD).

[4] = Homo sapiens, PC-3, read-out: % Viability of spheres (PC3)

pIC50 (PC3 [1]) | Structure (SMILES) | anticancer activity in comparison with cisplatin, soft agar, prostate cancer cell line (PC3 [1]) | % inhibition of Wound Healing for Breast Cancer Cell line (MDAMB231) after 48 hrs (MDAMB231) | % inhibition of ALDH on Breast Cancer Cell line (MDAMB231) after 48 hrs [2] | viability at 0.025 µM (PC3 [3]; [4]) | viability at 0.25 µM (PC3 [3]; [4]) | viability at 2.5 µM (PC3 [3]; [4]) | viability at 25 µM (PC3 [3]; [4]) | viability at 250 µM (PC3 [3]; [4]) | 3D sphere count of PC3 (PC3 [3]; drug 0.025 uM) | 3D sphere count of PC3 (PC3 [3]; drug 0.25 uM) | 3D sphere count of PC3 (PC3 [3]; drug 2.5 uM) | 3D sphere count of PC3 (PC3 [3]; drug 25 uM) | 3D sphere count of PC3 (PC3 [3]; drug 250 uM) | viability at 0.0025 µM (PC3 [3]; [4]) | 3D sphere count of PC3 (PC3 [3]; drug 0.0025 uM)
5.49 | O=C1C(NC2CCCCC2)=CC(=O)c2c(OCCN3CCOCC3)cccc21 [Formula 52] | higher anticancer activity in comparison with cisplatin | 37.42% | 74.69% | 77% | 62% | 49% | 30% | – | 63(±4) | 51(±3) | 40(±4) | 25(±3) | – | 87% | 71(±3)
6.37 | COc1ccc(NC2=CC(=O)c3c(OCCN4CCOCC4)cccc3C2=O)cc1OC [Formula 40, 5-(2-morpholinoethoxy)-2-(3,4-dimethoxyphenylamino) naphthalene-1,4-dione] | higher anticancer activity in comparison with cisplatin | 45.84% | 62.73% | 65% | 47% | 34% | 17% | – | 57(±3) | 41(±3) | 30(±3) | 15(±3) | – | 80% | 70(±5)

Structure (SMILES) | pIC50 (PC3 [1]) | anticancer activity in comparison with cisplatin, soft agar, prostate cancer cell line (PC3 [1]) | % inhibition of Wound Healing for Breast Cancer Cell line (MDAMB231) after 48 hrs (MDAMB231) | % inhibition of ALDH on Breast Cancer Cell line (MDAMB231) after 48 hrs [2] | viability at 0.025 µM (PC3 [3]; [4]) | viability at 0.25 µM (PC3 [3]; [4]) | viability at 2.5 µM (PC3 [3]; [4]) | viability at 25 µM (PC3 [3]; [4]) | viability at 250 µM (PC3 [3]; [4]) | 3D sphere count of PC3 (PC3 [3]; drug 0.025 uM) | 3D sphere count of PC3 (PC3 [3]; drug 0.25 uM) | 3D sphere count of PC3 (PC3 [3]; drug 2.5 uM) | 3D sphere count of PC3 (PC3 [3]; drug 25 uM) | 3D sphere count of PC3 (PC3 [3]; drug 250 uM) | viability at 0.0025 µM (PC3 [3]; [4]) | 3D sphere count of PC3 (PC3 [3]; drug 0.0025 uM)
O=C1C(c2ccc3c(c2)OCO3)=CC(=O)c2c(OCCCCN3CCOCC3)cccc21 [Formula 2, 5-(4-morpholinobutoxy)-2-(benzo[d][1,3]dioxol-6-yl)naphthalene-1,4-dione] | 5.58 | higher anticancer activity in comparison with cisplatin | 53.69% | 76.09% | 77% | 65% | 39% | 21% | 10% | 63(±4) | 53(±3) | 32(±4) | 17(±3) | 8(±2) | – | –

Source: patent publication US20240018132A1, “5-HYDROXY-1,4-NAPHTHALENEDIONE FOR USE IN THE TREATMENT OF CANCER” (GODAVARI BIOREFINERIES LIMITED, priority 2020, published 2024)
